Results from patent US20100041900A1, “Isolation of lactam compound from adlay bran and its use on anti-proliferative cancer cells” (KUANG TA FOODS CO., LTD, priority 2008, published 2010).
≈ marks a conversion by molar mass, not a printed value. Like-named read-outs stand apart in the source and are kept apart here.

Tests used:
Type in all cases: cell-based
[1] = test system: HT-29 (human colon carcinoma); assay: MTT assay, growth inhibition of HT-29 cells; conditions: 48 hours incubation, mean ± SD of three replicates; for IC50: Homo sapiens, HT-29, 48 h, read-out: IC50 (concentration required for 50% growth inhibition of cancer cells), HT-29
Protocol: (§1) The cell lines A549 (human lung cancer), HT-29 (human colon carcinoma), and COLO 205 (human colon carcinoma) were obtained from the American Type Culture Collection (ATCC) (Rockville, Md.). These cell lines were maintained in DMEM containing 10% heat-inactivated fetal bovine serum, 100 units/mL of penicillin and 100 μg/mL of streptomycin, and were kept at 37° C. in a 5% CO2 incubator.
(§2) MTT assay was performed as described by Hansen et al. (Hansen et al., J. Immunol. Methods 119, 203-210, 1989). A549 (1.5×10^3 cells/well), HT-29 (2×10^3 cells/well), and COLO 205 (3×10^3 cells/well) were seeded in 96-well plates and grown overnight. Cells were then incubated in 10% FBS medium containing different amounts of adlay bran subfractions for 48 hours. At the end of incubation, media were replaced with 100 μL of reagent (MTT, 1 mg/mL) and incubated in a 5% CO2 incubator at 37° C. for another 2 h. The medium was then discarded and 100 μL of DMSO was added to each well. The absorbance was measured at 570 nm by scanning with a micro-plate reader (Molecular Devices, Calif.). Each sample was analyzed six times, and the values were averaged. For the determination of IC50 (the concentration of each substance required to inhibit cell proliferation by 50%), each sample was measured at five different concentrations by the MTT test. […] The IC50 values of each sample were collected from three replicates, and then mean±standard deviation values were obtained for the results of the IC50 assay.

[2] = test system: COLO 205 (human colon carcinoma); assay: MTT assay, growth inhibition of COLO 205 cells; conditions: 48 hours incubation, mean ± SD of three replicates; for IC50: Homo sapiens, COLO 205, 48 h, read-out: IC50 (concentration required for 50% growth inhibition of cancer cells), COLO 205
Protocol: as §1, §2

A549 (human lung cancer) = assay: MTT assay, growth inhibition of A549 cells; conditions: for IC50: Homo sapiens
Protocol: as §1, §2

[3] = A549, 48 h, A549 cells, 48 hours incubation, MTT, mean ± SD of three replicates, read-out: IC50 (concentration required for 50% growth inhibition of cancer cells), A549
[4] = A549, summary range over all five compounds and all three cell lines A549, HT-29, COLO 205, read-out: IC50 values against A549, HT-29 and COLO 205 cells (overall range)

SMILES	IC50 [1]	IC50 [2]	IC50 (A549 (human lung cancer); [3])	IC50 (A549 (human lung cancer); [4])	IC50 (concentration required for 50% growth inhibition of cancer cells), HT-29 [1]	IC50 (concentration required for 50% growth inhibition of cancer cells), COLO 205 [2]	IC50 (concentration required for 50% growth inhibition of cancer cells), A549 (A549 (human lung cancer); A549 cells, 48 hours incubation, MTT, mean ± SD of three replicates)
O=C1C[C@]2(CO1)C(=O)Nc1ccccc12 [Compound 1, coixspirolactam A]	34.4 ± 3.53 µg/mL (≈ 169 µM)	35.9 ± 4.65 µg/mL (≈ 177 µM)	37.1 ± 1.93 µg/mL (≈ 183 µM)	28.6 to 72.6 µg/mL (≈ 141 to 357 µM)	–	–	–
COC(=O)[C@H]1Cc2ccccc2NC1=O [Compound 4, coixlactam]	52.6 ± 2.64 µg/mL (≈ 256 µM)	72.6 ± 5.31 µg/mL (≈ 354 µM)	65 ± 3.32 µg/mL (≈ 317 µM)	28.6 to 72.6 µg/mL (≈ 139 to 354 µM)	–	–	–

Continued, values first:

IC50 [1]	IC50 [2]	IC50 (A549 (human lung cancer); [3])	IC50 (A549 (human lung cancer); [4])	IC50 (concentration required for 50% growth inhibition of cancer cells), HT-29 [1]	IC50 (concentration required for 50% growth inhibition of cancer cells), COLO 205 [2]	IC50 (concentration required for 50% growth inhibition of cancer cells), A549 (A549 (human lung cancer); A549 cells, 48 hours incubation, MTT, mean ± SD of three replicates)	SMILES
32.7 ± 2.29 µg/mL (≈ 151 µM)	41.3 ± 3.52 µg/mL (≈ 190 µM)	28.6 ± 2.04 µg/mL (≈ 132 µM)	28.6 to 72.6 µg/mL (≈ 132 to 334 µM)	–	–	–	CC1OC(=O)C[C@@]12C(=O)Nc1ccccc12 (stereo partly shown) [Compound 2, coixspirolactam B]
–	–	–	–	37.55 ± 3.08 µg/mL	48.12 ± 4.15 µg/mL	31.75 ± 2.58 µg/mL	CC1OC(=O)C[C@@]12C(=O)Nc1ccccc12 (stereo partly shown) [Compound 3, coixspirolactam C]
48.9 ± 3.83 µg/mL (≈ 221 µM)	45.5 ± 6.42 µg/mL (≈ 206 µM)	42.6 ± 2.31 µg/mL (≈ 193 µM)	28.6 to 72.6 µg/mL (≈ 129 to 328 µM)	–	–	–	COC(=O)CC1(O)C(=O)Nc2ccccc21 (stereo not shown) [Compound 5, methyl dioxindole-3-acetate]
